Measurements from US20040254173A1, “Modulation of dopamine responses with substituted (S)-2,3-benzodiazepines” (priority 2003, published 2004).

Columns and labels:
[1] = test system: apomorphine-induced hypothermia, stereotypies and climbing; experiment: Low Dose Apomorphine Test in the mouse; type: in vivo; conditions: for STEREOTYPY (intensity score), 20 min after apomorphine, mean ± s.e.m. / STEREOTYPY (intensity score), 50 min after apomorphine, mean ± s.e.m.: 4 point scale (0-3); for CLIMBING (No. of mice), 20 minutes after apomorphine / CLIMBING (No. of mice), 50 minutes after apomorphine: 6 mice per group; for Rectal Temperature, 30 min after apomorphine, mean ± s.e.m. / Rectal Temperature, 60 min after apomorphine, mean ± s.e.m. / Rectal Temperature, before apomorphine, mean ± s.e.m.: mouse; for Rectal Temperature, 30 min after apomorphine, mean change from control / Rectal Temperature, 60 min after apomorphine, mean change from control / STEREOTYPY (intensity score), 20 min after apomorphine, mean change from control / STEREOTYPY (intensity score), 50 min after apomorphine, mean change from control: vs vehicle; for Rectal Temperature, before apomorphine, mean ± s.e.m.: 30 min after test substance
From the text: Racemic tofisopam, (R)-tofisopam and (S)-tofisopam were investigated in the Low Dose Apomorphine Test in the mouse to evaluate their pro- or anti-dopaminergic activity following intraperitoneal (i.p.) administration of apomorphine. Apomorphine, at a low dose, induces hypothermia, stereotypies and climbing. All three of these symptoms are potentiated by dopaminergic agonists and antagonized by dopamine antagonists, such as classical neuroleptics. The Low Dose Apomorphine Test, thus serves to detect pro- or antidopaminergic activity. The test was performed according to the protocols described by Chermat and Poncelet. See, Chermat R., Poncelet M., “Antagonisme des redressements, des stéréotypies et de l'hypotheimie induits par 1 ou 16 mg.kg-1 d'apomorphine,” J. Pharmacol., 14, 93-97, 1983.
Male mice of Rj: NMRI strain, 23-26 g body weight range were supplied by Elevage Janvier, 53940 Le Genest-Saint-Isle, France. The animals were delivered to the laboratory at least 3 days before the experiment and, upon arrival, were housed 10 per cage in macrolon cages (25×19×13 cm) containing wood shavings (Litalabo-SPPS, 95100 Argenteuil, France) with free access to food (UAR 113-UAR, 91360 Epinay-sur-Orge, France) and tap water (i.e. non-fasted) until tested. The animal house was maintained under artificial lighting (12 hours) between 7.00 and 19.00 in a controlled ambient temperature of 21±1° C., and relative humidity maintained at 40-70%.
The different treatments were equally distributed between the animals. During the experiment, each animal within a cage received the same treatment. Animals within a cage were individually marked on the tail with an indelible pen.
The experiment was conducted blind with treatment vials labeled A, B, C etc., according to a standardized coding procedure. The evaluation of the different treatments was balanced over time by testing successive series of individual animals from each treatment group in a fixed rotation (A, B, C, etc.). Animals were sacrificed at the end of the experiment by exposure to CO2.
Three compounds, racemic tofisopam, (R)-tofisopam and (S)-tofisopam were tested in the Low Dose Apomorphine Test. Each of these three compounds was dosed as a dispersion in 0.2% hydroxypropylmethylcellulose (HPMC) (Sigma), in sterile physiological saline (Laboratoire Aguettant).
Two reference standards were also dosed. Bromocriptine, methanesulfonate (Sigma), a known dopamine agonist, and haloperidol (Sigma), a known dopamine antagonist, were dispersed in 0.2% HPMC in sterile physiological saline.
Apomorphine hydrochloride, the dopamine mimetic employed in the assay, was dissolved in water for injectable preparation (Laboratoire Aguettant). Dosing: All of the dosed substances were administered in a volume of 10 ml/kg. The doses are expressed in mg/kg of supplied substance.
6 mice were studied per group. The test was performed blind.
Racemic tofisopam, (R)-tofisopam and (S)-tofisopam were administered at doses of 16, 32 and 64 mg/kg, administered intraperitonealy (i.p.), 30 minutes prior to administration of apomorphine.
The rectal temperature of the mice was measured prior to apomorphine dosing using a rectal probe (Physitemp Instruments Digital Laboratory Thermometer Model BAT-12). The mice were then placed in individual Plexiglas cages (10×6×4 cm) attached with the opening against a vertical wire grid.
The mice were then injected subcutaneously (s.c.) with apomorphine (1 mg/kg). Rectal temperature was measured 30 and 60 minutes after the injection of apomorphine.
The intensity of stereotypies (sniffing, licking, gnawing), were scored at 20 minutes and 50 minutes after injection of apomorphine on a 4 point scale (0-3). The presence (1) or absence (0) of climbing against the wire grid wall, were also assessed 20 and 50 minutes after injection of apomorphine.
The reference standards bromocriptine (16 mg/kg) and haloperidol (0.5 mg/kg), were administered under the same experimental conditions.

central BZ receptors = conditions: cited from earlier work
peripheral BZ receptors = peripheral BZ receptors (Homo sapiens, UniProt P30536); conditions: cited from earlier work
Chain of peripheral BZ receptors (P30536 whole entry): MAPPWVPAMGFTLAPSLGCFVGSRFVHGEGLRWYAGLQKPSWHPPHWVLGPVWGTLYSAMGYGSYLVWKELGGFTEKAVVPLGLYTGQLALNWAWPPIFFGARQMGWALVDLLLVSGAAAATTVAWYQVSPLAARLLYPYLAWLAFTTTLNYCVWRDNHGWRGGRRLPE

aggression in mice = conditions: Ito 1981; cited from earlier work
[2] = test system: muricide (mouse killing behavior) in rats; conditions: Ito 1981; cited from earlier work
[3] = test system: anti-noradrenergic effects; conditions: Ito 1981; cited from earlier work
narcosis = conditions: mice; U.S. Pat. No. 4,322,346; cited from earlier work
[4] = 16 mg/kg i.p. 30 min before apomorphine 1 mg/kg s.c.
[5] = 32 mg/kg i.p. 30 min before apomorphine 1 mg/kg s.c.
[6] = 64 mg/kg i.p. 30 min before apomorphine 1 mg/kg s.c.

For CCC1C(C)=NN=C(c2ccc(OC)c(OC)c2)c2cc(OC)c(OC)cc21 (racemic) [Racemic tofisopam, racemic-1-(3,4-dimethoxyphenyl)-4-methyl-5-ethyl-7,8-dimethoxy-5H-2,3-benzodiazepine], the “STEREOTYPY (intensity score), 20 min after apomorphine, mean ± s.e.m.” value [1, 4] was 3.0 ± 0.0, the “STEREOTYPY (intensity score), 50 min after apomorphine, mean ± s.e.m.” value [1, 4] was 0.7 ± 0.2 and the “CLIMBING (No. of mice), 20 minutes after apomorphine” value (“CLIMBING (No. of mice), 20 minutes” for short) [1, 4] was 6 No. of mice. The “CLIMBING (No. of mice), 50 minutes after apomorphine” value (shortened to “CLIMBING (No. of mice), 50 minutes”) [1, 4] was 3 No. of mice, the “Rectal Temperature, 30 min after apomorphine, mean ± s.e.m.” value [1, 4] was 35.3 ± 0.6 °C and the “Rectal Temperature, 60 min after apomorphine, mean ± s.e.m.” value [1, 4] was 36.9 ± 0.3 °C. The “Rectal Temperature, 30 min after apomorphine, mean change from control” value [1, 4] was “+0.2 °C”, the “Rectal Temperature, 60 min after apomorphine, mean change from control” value [1, 4] was “+0.2 °C” and the “STEREOTYPY (intensity score), 20 min after apomorphine, mean change from control” value [1, 4] was “+0.8”. The “STEREOTYPY (intensity score), 50 min after apomorphine, mean change from control” value [1, 4] was −0.3, the “Rectal Temperature, before apomorphine, mean ± s.e.m.” value ([1]; 16 mg/kg i.p.) was 37.3 ± 0.1 °C and the “STEREOTYPY (intensity score), 20 min after apomorphine, mean ± s.e.m.” value [1, 5] was 2.8 ± 0.2. For the same compound, the “STEREOTYPY (intensity score), 50 min after apomorphine, mean ± s.e.m.” value [1, 5] was 0.8 ± 0.3, the “CLIMBING (No. of mice), 20 minutes” value [1, 5] was 6 No. of mice and the “CLIMBING (No. of mice), 50 minutes” value [1, 5] was 5 No. of mice. The “Rectal Temperature, 30 min after apomorphine, mean ± s.e.m.” value [1, 5] was 34.3 ± 0.5 °C, the “Rectal Temperature, 60 min after apomorphine, mean ± s.e.m.” value [1, 5] was 36.6 ± 0.3 °C and the “Rectal Temperature, 30 min after apomorphine, mean change from control” value [1, 5] was −0.8 °C. The “Rectal Temperature, 60 min after apomorphine, mean change from control” value [1, 5] was −0.1 °C, the “STEREOTYPY (intensity score), 20 min after apomorphine, mean change from control” value [1, 5] was “+0.6” and the “STEREOTYPY (intensity score), 50 min after apomorphine, mean change from control” value [1, 5] was −0.2. The “Rectal Temperature, before apomorphine, mean ± s.e.m.” value ([1]; 32 mg/kg i.p.) was 37.1 ± 0.2 °C, the “STEREOTYPY (intensity score), 20 min after apomorphine, mean ± s.e.m.” value [1, 6] was 2.3 ± 0.2 and the “STEREOTYPY (intensity score), 50 min after apomorphine, mean ± s.e.m.” value [1, 6] was 1.3 ± 0.2. The “CLIMBING (No. of mice), 20 minutes” value [1, 6] was 6 No. of mice, the “CLIMBING (No. of mice), 50 minutes” value [1, 6] was 4 No. of mice and the “Rectal Temperature, 30 min after apomorphine, mean ± s.e.m.” value [1, 6] was 33.9 ± 0.5 °C. The “Rectal Temperature, 60 min after apomorphine, mean ± s.e.m.” value [1, 6] was 36.3 ± 0.3 °C, the “Rectal Temperature, 30 min after apomorphine, mean change from control” value [1, 6] was −1.2 °C and the “Rectal Temperature, 60 min after apomorphine, mean change from control” value [1, 6] was −0.4 °C. For the same compound, the “STEREOTYPY (intensity score), 20 min after apomorphine, mean change from control” value [1, 6] was “+0.1”, the “STEREOTYPY (intensity score), 50 min after apomorphine, mean change from control” value [1, 6] was “+0.3” and the “Rectal Temperature, before apomorphine, mean ± s.e.m.” value ([1]; 64 mg/kg i.p.) was 37.2 ± 0.2 °C. For the same compound, the “behaviour on apomorphine-induced hypothermia (rectal temperature)” value ([1]; 64 mg/kg, thirty and sixty minute time points, trend not statistically significant) was “weak dopamine antagonist”, the “behaviour on apomorphine-induced stereotypies” value ([1]; 16 and 32 mg/kg, twenty minute time point, significant only at 16 mg/kg) was “strong dopamine agonist” and the “interaction with central BZ receptors” value (central BZ receptors) was “does not interact”. The “binding to peripheral BZ receptors” value (peripheral BZ receptors) was “binds only weakly”.
For CCC1C(C)=NN=C(c2ccc(OC)c(OC)c2)c2cc(OC)c(O)cc21 (centres unmarked) [1-(3,4-Dimethoxyphenyl)-4-methyl-5-ethyl-7-hydroxy-8-methoxy-5H-2,3-benzodiazepine], the “inhibition of aggression in mice” value (aggression in mice) is listed as 0%, the inhibition of muricide [2] is listed as 20% and the antinoradrenergic effect [3] is listed as “no antinoradrenergic effect”.
For CCC1C(C)=NN=C(c2ccc(O)c(OC)c2)c2cc(OC)c(OC)cc21 (centres unmarked) [1-(3-Methoxy-4-hydroxyphenyl)-4-methyl-5-ethyl-7,8-dimethoxy-5H-2,3-benzodiazepine], the “inhibition of aggression in mice” value (aggression in mice) is listed as 0%, the inhibition of muricide [2] is listed as 0% and the antinoradrenergic effect [3] is listed as “a measurable antinoradrenergic effect”. For the same compound, the narcosis-potentiating activity (narcosis) was “narcosis-potentiating activity”.
For CCC1C(C)=NN=C(c2ccc(O)c(OC)c2)c2cc(OC)c(O)cc21 (centres unmarked) [1-(3-Methoxy-4-hydroxyphenyl)-4-methyl-5-ethyl-7-hydroxy-8-methoxy-5H-2,3-benzodiazepine], the “inhibition of aggression in mice” value (aggression in mice) is listed as 28.6%, the inhibition of muricide [2] is listed as 20% and the antinoradrenergic effect [3] is listed as “a measurable antinoradrenergic effect”.
